According to patent US4518779A, “1,2,3,4-Tetrahydro-1-aminomethyl-4-phenyl isoquinolines” (Pennwalt Corporation, priority 1982, dated 1985):
Where a name gives a salt, the structure may show the parent alone. Read-outs that look alike come from different tables or passages of the source.

Molecular target: [^3 H]-mepyramine binding in brain homogenates (Rattus norvegicus, UniProt P31390)
Experiment: biochemical
Conditions: read-out: (^3 H)mepyramine rating: molar concentration required to inhibit by 50% the binding of [^3 H]mepyramine
[1] = in vitro, brain homogenates, smaller numbers indicate greater potency

[^3 H]-mepyramine binding in brain homogenates, sequence (P31390 whole entry): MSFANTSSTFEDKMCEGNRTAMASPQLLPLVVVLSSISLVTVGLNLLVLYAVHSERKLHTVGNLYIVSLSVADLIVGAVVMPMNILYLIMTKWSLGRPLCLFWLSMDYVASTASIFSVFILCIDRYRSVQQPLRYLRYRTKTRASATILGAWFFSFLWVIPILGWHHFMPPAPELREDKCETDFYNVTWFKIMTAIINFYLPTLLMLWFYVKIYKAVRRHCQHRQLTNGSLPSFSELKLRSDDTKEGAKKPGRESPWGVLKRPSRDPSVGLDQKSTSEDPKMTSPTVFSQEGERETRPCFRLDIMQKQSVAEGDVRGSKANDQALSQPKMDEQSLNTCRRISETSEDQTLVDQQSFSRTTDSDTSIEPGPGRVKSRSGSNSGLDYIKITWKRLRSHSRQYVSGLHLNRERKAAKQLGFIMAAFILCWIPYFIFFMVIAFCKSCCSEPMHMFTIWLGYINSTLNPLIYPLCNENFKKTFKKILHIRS

Compound	IC50 [nM]	IC50 [1] [nM]
CNC[C@@H]1NC[C@H](c2ccccc2)c2ccccc21 (relative stereo) [Example 1 cis form, cis-1,2,3,4-tetrahydro-1-methylaminomethyl-4-phenylisoquinoline dihydrochloride]	3500	–
CN(C)C[C@@H]1NC[C@H](c2ccccc2)c2ccccc21 (relative stereo) [Example 2, 1,2,3,4-tetrahydro-1-dimethylaminomethyl-4-phenylisoquinoline dihydrochloride]	–	2800
CCNC[C@@H]1NC[C@H](c2ccccc2)c2ccccc21 (relative stereo) [Example 4, 1,2,3,4-tetrahydro-1-(ethylamino)methyl-4-phenylisoquinoline dihydrochloride]	–	> 1000

Further lines, results first:

IC50 [nM]	IC50 [1] [nM]	Compound
78	–	CNC[C@@H]1NC[C@@H](c2ccccc2)c2ccccc21 (relative stereo) [Example 1 trans form, trans-1,2,3,4-tetrahydro-1-methylaminomethyl-4-phenylisoquinoline dihydrochloride]
–	1800	CN(C)C[C@H]1c2ccccc2[C@@H](c2ccccc2)CN1C (relative stereo) [Example 3, 1,2,3,4-tetrahydro-2-methyl-1-dimethylaminomethyl-4-phenylisoquinoline dihydrochloride]
